Experimental data published in patent US9693997B2, “Antiviral compounds” (priority 2013, dated 2017).
Structures can show the parent of a compound that is named as a salt. Where two headings read alike, the source gives them in different places.

Experiments:
[1] = tested on: pseudotyped VSV G particles (VSVpp) in Huh7-high CD81 cells; assay: microbe, parasite or virus in culture; type: cell-based, vesicular stomatitis virus
[2] = tested on: Pseudotyped HCV GT1b particles (HCVpp), entry into Huh7-high CD81 cells; assay: microbe, parasite or virus in culture; type: cell-based, HCV GT1b Con1 strain
[3] = Vesicular stomatitis virus, 72 h, read-out: VSVpp (EC50, μM)
[4] = Hepatitis C virus, GT1B, 72 h, read-out: HCVpp GT-1b (EC50, μM)

Row | SMILES | EC50 [1, 3] [µM] | EC50 [2, 4] [µM] | EC50 ([1]; read-out: VSVpp (EC50)) [µM] | EC50 ([2]; read-out: HCVpp GT-1b (EC50)) [µM]
1 | CS(=O)(=O)NCc1cccc(-c2c(Cl)cc(Nc3n[nH]c(N)n3)cc2C(F)(F)F)c1 [Compound 199, N-((4′-(5-amino-1H-1,2,4-triazol-3-ylamino)-2′-chloro-6′-(trifluoromethyl)biphenyl-3-yl)methyl)methanesulfonamide] | 31.8 | 0.196 |  | 
2 | CC(C)(C)OC(=O)c1ccc(-c2c(Cl)cc(Nc3n[nH]c(N)n3)cc2C(F)(F)F)cc1 [Compound 200, tert-butyl 4′-(5-amino-1H-1,2,4-triazol-3-ylamino)-2′-chloro-6′-(trifluoromethyl)biphenyl-4-carboxylate] | > 10 | 0.574 |  | 
3 | Nc1nc(Nc2cc(Cl)c(-c3ccccc3)c(C(F)(F)F)c2)n[nH]1 [Compound 201, N3-(2-chloro-6-(trifluoromethyl)biphenyl-4-yl)-1H-1,2,4-triazole-3,5-diamine 2,2,2-trifluoroacetate] | 58.3 | 0.405 |  | 
4 | Nc1nc(Nc2cc(Cl)c(-c3ccc(C(=O)O)cc3)c(C(F)(F)F)c2)n[nH]1 [Compound 202, 4′-(5-amino-1H-1,2,4-triazol-3-ylamino)-2′-chloro-6′-(trifluoromethyl)biphenyl-4-carboxylic acid 2,2,2-trifluoroacetate] | > 10 | 1.25 |  | 
5 | COc1ccc(-c2c(Cl)cc(Nc3n[nH]c(N)n3)cc2C(F)(F)F)cc1S(=O)(=O)N1CCCC1 [Compound 203, N3-(2-chloro-4′-methoxy-3′-(pyrrolidin-1-ylsulfonyl)-6-(trifluoromethyl)biphenyl-4-yl)-1H-] | 10.6 | 0.008 |  | 
6 | COc1ccc(-c2c(Cl)cc(Nc3n[nH]c(N)n3)cc2C(F)(F)F)cc1S(=O)(=O)NC1CCNCC1 [Compound 204, 4′-(5-amino-1H-1,2,4-triazol-3-ylamino)-2′-chloro-4-methoxy-N-(piperidin-4-yl)-6′-(trifluoromethyl)biphenyl-3-sulfonamide hydrochloride] | > 10 | 0.011 |  | 
7 | CC1(NS(=O)(=O)c2ccc(-c3c(Cl)cc(Nc4n[nH]c(N)n4)cc3C(F)(F)F)cc2)CN(C(=O)OC(C)(C)C)C1 [Compound 205, tert-butyl 3-(4′-(5-amino-1H-1,2,4-triazol-3-ylamino)-2′-chloro-6′-(trifluoromethyl)biphenyl-4-ylsulfonamido)-3-methylazetidine-1-carboxylate] | 9.26 | 0.011 |  | 
8 | CC1(NS(=O)(=O)c2ccc(-c3c(Cl)cc(Nc4n[nH]c(N)n4)cc3C(F)(F)F)cc2)CC1 [Compound 206, 4′-(5-amino-1H-1,2,4-triazol-3-ylamino)-2′-chloro-N-(1-methylcyclopropyl)-6′-(trifluoromethyl)biphenyl-4-sulfonamide] | 9.62 | 0.017 |  | 
9 | CC1(NS(=O)(=O)c2ccc(-c3c(Cl)cc(Nc4n[nH]c(N)n4)cc3C(F)(F)F)cc2)CNC1 [Compound 207, 4′-(5-amino-1H-1,2,4-triazol-3-ylamino)-2′-chloro-N-(3-methylazetidin-3-yl)-6′-(trifluoromethyl)biphenyl-4-sulfonamide hydrochloride] | > 10 | 0.029 |  | 
10 | CC(C)(C)OC(=O)N1CCN(S(=O)(=O)c2ccc(-c3c(Cl)cc(Nc4n[nH]c(N)n4)cc3C(F)(F)F)cc2)C2(CC2)C1 [Compound 208, tert-butyl 4-(4′-(5-amino-1H-1,2,4-triazol-3-ylamino)-2′-chloro-6′-(trifluoromethyl)biphenyl-4-ylsulfonyl)-4,7-diazaspiro[2.5]octane-7-carboxylate] | > 10 | 0.049 |  | 
11 | CN(CCNS(=O)(=O)c1ccc(-c2c(Cl)cc(Nc3n[nH]c(N)n3)cc2C(F)(F)F)cc1)C(=O)OC(C)(C)C [Compound 209, tert-butyl 2-(4′-(5-amino-1H-1,2,4-triazol-3-ylamino)-2′-chloro-6′-(trifluoromethyl)biphenyl-4-ylsulfonamido)ethyl(methyl)carbamate] | 7.09 | 0.005 |  | 
12 | CC(C)N1CC(C)(NS(=O)(=O)c2ccc(-c3c(Cl)cc(Nc4n[nH]c(N)n4)cc3C(F)(F)F)cc2)C1 [Compound 210, 4′-(5-amino-1H-1,2,4-triazol-3-ylamino)-2′-chloro-N-(1-isopropyl-3-methylazetidin-3-yl)-6′-(trifluoromethyl)biphenyl-4-sulfonamide hydrochloride] | 4.41 | 0.021 |  | 
13 | CC(C)N1CC(C)(NS(=O)(=O)c2ccc(-c3c(Cl)cc(Nc4n[nH]c(N)n4)cc3C(F)(F)F)cc2)C1 [Compound 211, 4′-(5-amino-1H-1,2,4-triazol-3-ylamino)-2′-chloro-N-(1-isopropyl-3-methylazetidin-3-yl)-6′-(trifluoromethyl)biphenyl-4-sulfonamide; compound with trifluoro-acetic acid] |  |  | 3.65 | 0.012
14 | COc1ccc(-c2c(Cl)cc(Nc3n[nH]c(N)n3)cc2C(F)(F)F)cc1S(=O)(=O)NC1(C)CN(C(=O)OC(C)(C)C)C1 [Compound 212, tert-butyl 3-(4′-(5-amino-1H-1,2,4-triazol-3-ylamino)-2′-chloro-4-methoxy-6′-(trifluoromethyl)biphenyl-3-ylsulfonamido)-3-methylazetidine-1-carboxylate] | 1.42 | 0.005 |  | 
15 | CNCCNS(=O)(=O)c1ccc(-c2c(Cl)cc(Nc3n[nH]c(N)n3)cc2C(F)(F)F)cc1 [Compound 213, 4′-(5-amino-1H-1,2,4-triazol-3-ylamino)-2′-chloro-N-(2-(methylamino)ethyl)-6′-(trifluoromethyl)biphenyl-4-sulfonamide hydrochloride] | > 10 | 0.062 |  | 
16 | Nc1nc(Nc2cc(Cl)c(-c3ccc(S(=O)(=O)N4CCNCC45CC5)cc3)c(C(F)(F)F)c2)n[nH]1 [Compound 214, N3-(4′-(4,7-diazaspiro[2.5]octan-4-ylsulfonyl)-2-chloro-6-(trifluoromethyl)biphenyl-4-yl)-1H-1,2,4-triazole-3,5-diamine hydrochloride] | 3.36 | 0.048 |  | 
17 | COc1ccc(-c2c(Cl)cc(Nc3n[nH]c(N)n3)cc2C(F)(F)F)cc1S(=O)(=O)NC1(C)CNC1 [Compound 215, 4′-(5-amino-1H-1,2,4-triazol-3-ylamino)-2′-chloro-4-methoxy-N-(3-methylazetidin-3-yl)-6′-(trifluoromethyl)biphenyl-3-sulfonamide hydrochloride] | > 10 | 0.111 |  | 
18 | COc1ccc(-c2c(Cl)cc(Nc3n[nH]c(N)n3)cc2C(F)(F)F)cc1S(=O)(=O)NC(C)(C)C [Compound 216, 4′-(5-Amino-1H-[1,2,4]triazol-3-ylamino)-6′-chloro-4-methoxy-2′-trifluoromethyl-biphenyl-3-sulfonic acid tert-butylamide] | 6.48 | 0.004 |  | 
19 | Nc1nc(Nc2cc(Cl)c(-c3ccc(S(=O)(=O)N4CCCC4)cc3)c(Cl)c2)n[nH]1 [Compound 220, N*3*-[2,6-Dichloro-4′-(pyrrolidine-1-sulfonyl)-biphenyl-4-yl]-1H-[1,2,4]triazole-3,5-diamine] | 24.8 | 0.028 |  | 
20 | COc1ccc(-c2c(Cl)cc(Nc3n[nH]c(N)n3)cc2C(F)(F)F)cc1S(=O)(=O)NC1CCN(C(=O)OC(C)(C)C)CC1 [Compound 221, 4-[4′-(5-Amino-1H-[1,2,4]triazol-3-ylamino)-6′-chloro-4-methoxy-2′-trifluoromethyl-biphenyl-3-sulfonylamino]-piperidine-1-carboxylic acid tert-butyl ester] | 4.55 | 0.003 |  | 
21 | CC(C)(C)N(CC(F)(F)F)S(=O)(=O)c1ccc(-c2c(Cl)cc(Nc3n[nH]c(N)n3)cc2C(F)(F)F)cc1 [Compound 223, 4′-(5-Amino-1H-[1,2,4]triazol-3-ylamino)-6′-chloro-2′-trifluoromethyl-biphenyl-4-sulfonic acid tert-butyl-(2,2,2-trifluoro-ethyl)-amide] | 9.8 | 0.029 |  | 
22 | Nc1nc(Nc2cc(Cl)c(-c3ccc(S(=O)(=O)N4CC(F)(F)C4)cc3)c(C(F)(F)F)c2)n[nH]1 [Compound 224, N*3*-[6-Chloro-4′-(3,3-difluoro-azetidine-1-sulfonyl)-2-trifluoromethyl-biphenyl-4-yl]-1H-[1,2,4]triazole-3,5-diamine] | 4.57 | 0.02 |  | 
23 | COc1ccc(-c2c(Cl)cc(Nc3n[nH]c(N)n3)cc2C(F)(F)F)cc1S(=O)(=O)NC1(C#N)CC1 [Compound 225] | > 10 | 0.031 |  | 
24 | CC(C)(CO)NS(=O)(=O)c1ccc(-c2c(Cl)cc(Nc3n[nH]c(N)n3)cc2C(F)(F)F)cc1 [Compound 226, 4′-(5-Amino-1H-[1,2,4]triazol-3-ylamino)-6′-chloro-2′-trifluoromethyl-biphenyl-4-sulfonic acid (2-hydroxy-1,1-dimethyl-ethyl)-amide] | 5.39 | 0.032 |  | 
25 | COc1ccc(-c2c(Cl)cc(Nc3n[nH]c(N)n3)cc2C(F)(F)F)cc1S(=O)(=O)NC1CCN(C(C)=O)CC1 [Compound 227, 4′-(5-Amino-1H-[1,2,4]triazol-3-ylamino)-6′-chloro-4-methoxy-2′-trifluoromethyl-biphenyl-3-sulfonic acid (1-acetyl-piperidin-4-yl)-amide] | > 10 | 0.042 |  | 
26 | CC(C)S(=O)(=O)c1ccc(-c2c(Cl)cc(Nc3n[nH]c(N)n3)cc2C(F)(F)F)cc1 [Compound 228, N*3*-[6-Chloro-4′-(propane-2-sulfonyl)-2-trifluoromethyl-biphenyl-4-yl]-1H-[1,2,4]triazole-3,5-diamine] | 7.52 |  |  | 0.042
27 | COc1ccc(-c2c(Cl)cc(Nc3n[nH]c(N)n3)cc2C(F)(F)F)cc1OC(C)C [Compound 229, N*3*-(6-Chloro-3′-isopropoxy-4′-methoxy-2-trifluoromethyl-biphenyl-4-yl)-1H-[1,2,4]triazole-3,5-diamine] | 6.47 | 0.072 |  | 
